Columns and labels:
[1] = system: Pyricularia oryzae; type: in vivo; details: 200 ppm spray on rice (Koshihikari, 3 leaf stage), inoculated next day; lesion numbers on third leaves after 7 days in green house, graded by Table 5
[2] = system: Colletotrichum lagenarium; details: 200 ppm spray on cucumber (3 leaf stage), inoculated next day; lesion numbers on first and second leaves after 7 days in green house, graded by Table 5

| SMILES | Evaluation (effect for rice blast) [1] | Evaluation (effect for cucumber anthracnose) [2] |
| --- | --- | --- |
| COc1ccc(-c2cc(CNC(=O)c3ccccc3)on2)cc1OC [III-67, N-{[3-(3,4-dimethoxyphenyl)-5-isoxazolyl]methyl}benzamide] | 5 (0) | 5 (0) |
| COc1ccc(-c2cc(CNC(=O)c3ccc(C)cc3)on2)cc1OC [III-68, N-{[3-(3,4-dimethoxyphenyl)-5-isoxazolyl]methyl}-4-methylbenzamide] | 5 (0) | 5 (0) |
| Cc1ccc(C(=O)NCc2cc(-c3ccc(C)c(F)c3)no2)cc1 [III-73, N-{[3-(3-fluoro-4-methylphenyl)-5-isoxazolyl]methyl}-4-methylbenzamide] | 5 (0) | 4 (1˜5) |
| COc1ccc(-c2cc(CNC(=O)c3ccc(C)cc3)on2)c(F)c1 [III-74, N-{[3-(2-fluoro-4-methoxyphenyl)-5-isoxazolyl]methyl}-4-methylbenzamide] | 5 (0) | 5 (0) |
| Cc1ccc(C(=O)NCc2cc(-c3ccccc3)no2)cc1 [III-107, N-[(3-phenyl-5-isoxazolyl)methyl]-4-methylbenzamide] | 5 (0) | 5 (0) |
| CC(C)(C)c1ccc(C(=O)NCc2cc(-c3ccccc3)no2)cc1 [III-108, N-[(3-phenyl-5-isoxazolyl)methyl]-4-t-butylbenzamide] | 2 (11˜20) | 3 (6˜10) |
| COc1ccccc1C(=O)NCc1cc(-c2ccccc2)no1 [III-109, N-[(3-phenyl-5-isoxazolyl)methyl]-2-methoxybenzamide] | 4 (1˜5) | 5 (0) |
| COc1ccc(C(=O)NCc2cc(-c3ccccc3)no2)cc1 [III-111, N-[(3-phenyl-5-isoxazolyl)methyl]-4-methoxy benzamide] | 5 (0) | 5 (0) |
| O=C(NCc1cc(-c2ccccc2)no1)c1ccc(F)cc1 [III-121, N-[(3-phenyl-5-isoxazolyl)methyl]-4-fluorobenzamide] | 5 (0) | 5 (0) |
| O=C(NCc1cc(-c2ccccc2)no1)c1ccccc1Cl [III-122, N-[(3-phenyl-5-isoxazolyl)methyl]-2-chlorobenzamide] | 4 (1˜5) | 4 (1˜5) |
| O=C(NCc1cc(-c2ccccc2)no1)c1cccc(Cl)c1 [III-123, N-[(3-phenyl-5-isoxazolyl)methyl]-3-chlorobenzamide] | 5 (0) | 5 (0) |
| O=C(NCc1cc(-c2ccccc2)no1)c1ccc(Cl)cc1 [III-124, N-[(3-phenyl-5-isoxazolyl)methyl]-4-chlorobenzamide] | 5 (0) | 4 (1˜5) |
| O=C(NCc1cc(-c2ccccc2)no1)c1ccc(C(F)(F)F)cc1 [III-130, N-[(3-phenyl-5-isoxazolyl)methyl]-4-trifluoromethylbenzamide] | 4 (1˜5) | 4 (1˜5) |
| N#Cc1ccc(C(=O)NCc2cc(-c3ccccc3)no2)cc1 [III-133, N-[(3-phenyl-5-isoxazolyl)methyl]-4-cyanobenzamide] | 4 (1˜5) | 4 (1˜5) |
| Cc1ccc(-c2cc(CNC(=O)c3ccccc3O)on2)cc1 [III-134, N-[(3-(4-tolyl)-5-isoxazolyl)methyl]-2-hydroxybenzamide] | 3 (6˜10) | 5 (0) |
| O=C(NCc1cc(-c2ccccc2)no1)c1ccc([N+](=O)[O-])cc1 [III-137, N-[(3-phenyl-5-isoxazolyl)methyl]-4-nitrobenzamide] | 4 (1˜5) | 5 (0) |
| O=C(NCc1cc(-c2ccccc2)no1)c1ccc(OC(F)(F)F)cc1 [III-139, N-[(3-phenyl-5-isoxazolyl)methyl]-4-trifluoromethoxybenzamide] | 5 (0) | 5 (0) |
| COc1ccc(C(=O)NCc2cc(-c3ccccc3)no2)cc1OC [III-156, N-[(3-phenyl-5-isoxazolyl)methyl]-3,4-dimethoxybenzamide] | 4 (1˜5) | 4 (1˜5) |
| Cc1ccc(-c2cc(CNC(=O)c3ccc(C)c(F)c3)on2)cc1 [III-162, N-[(3-(4-tolyl)-5-isoxazolyl)methyl]-3-fluoro-4-methylbenzamide] | 5 (0) | 5 (0) |
| O=C(NCc1cc(-c2ccccc2)no1)c1ccccn1 [III-174, (3-phenyl-5-isoxazolyl)methylaminocarbonyl-2-pyridine] | 4 (1˜5) | 4 (1˜5) |

| SMILES | Evaluation (effect for rice blast) [1] | Evaluation (effect for cucumber anthracnose) [2] |
| --- | --- | --- |
| O=C(NCc1cc(-c2ccccc2)no1)c1cccs1 [III-177, (3-phenyl-5-isoxazolyl)methylaminocarbonyl-2-thiophene] | 4 (1˜5) | 4 (1˜5) |
| O=C(NCc1cc(-c2ccccc2)no1)c1ccc2c(c1)OCO2 [III-180, 5-(3-phenyl-5-isoxazolyl)methylaminocarbonyl-1,3-benzodioxol] | 5 (0) | 5 (0) |
| O=C(/C=C/c1ccccc1)NCc1cc(-c2ccccc2)no1 [III-201, (E)-N-[(3-phenyl-5-isoxazolyl)methyl]-3-phenylpropenamide] | 5 (0) | 5 (0) |
| O=C(NCc1cc(-c2ccccc2)no1)N1CCc2ccccc21 [III-208, N-[(3-phenyl-5-isoxazolyl)methylaminocarbonyl]indoline] | 4 (1˜5) | 4 (1˜5) |
| Cc1ccc(C(=O)NCc2cc(/C=C/c3ccccc3)no2)cc1 [III-210, N-{[3-(2-phenylethenyl)-5-isoxazolyl)methyl]-4-methylbenzamide] | 5 (0) | 5 (0) |
| CO/N=C/c1ccc(-c2cc(CNC(=O)c3ccc(C)cc3)on2)cc1 [III-214] | 4 (1˜5) | 5 (0) |
| COc1ccc(C(=O)NCc2cc(-c3ccc(OC)cc3F)no2)cc1 [III-215, N-{[3-(2-fluoro-4-methoxyphenyl)-5-isoxazolyl]methyl}-4-methoxylbenzamide] | 5 (0) | 5 (0) |
| COc1ccc(C(=O)NCc2cc(C=C(C)C)no2)cc1 [III-216, N-{[3-(2-methyl-1-propenyl)-5-isoxazolyl]methyl}-4-methoxylbenzamide] | 4 (1˜5) | 4 (1˜5) |
| Cc1ccc(C(=O)NCc2cc(-c3ccccn3)no2)cc1 [III-217, N-{[3-(2-pyridyl)-5-isoxazolyl]methyl}-4-methylbenzamide] | 4 (1˜5) | 4 (1˜5) |
| Cc1ccc(C(=O)NCc2cc(-c3cccnc3)no2)cc1 [III-218, N-{[3-(3-pyridyl)-5-isoxazolyl]methyl}-4-methylbenzamide] | 3 (6˜10) | 4 (1˜5) |
| Cc1ccc(C(=O)NCc2cc(-c3ccncc3)no2)cc1 [III-219, N-{[3-(4-pyridyl)-5-isoxazolyl]methyl}-4-methylbenzamide] | 3 (6˜10) | 3 (6˜10) |
| COc1ccc(C(=O)NCc2cc(-c3ccsc3)no2)cc1 [III-220, N-{[3-(3-thienyl)-5-isoxazolyl]methyl}-4-methoxylbenzamide] | 3 (6˜10) | 3 (6˜10) |
| C/C=C/C=C/c1cc(CNC(=O)c2ccc(OC)cc2)on1 [III-221, N-{[3-(1,3-pentadienyl)-5-isoxazolyl]methyl}-4-methoxylbenzamide] | 2 (11˜20) | 2 (11˜20) |
| COc1ccc(C(=O)NCc2cc(-c3cc4ccccc4n3C)no2)cc1 [III-223, N-{[3-(1-methylindol-2-yl)-5-isoxazolyl]methyl}-4-methoxybenzamide] | 5 (0) | 5 (0) |
| COc1ccc(C(=O)NCc2cc(-c3nc4ccccc4s3)no2)cc1 [III-224, N-{[3-(benzo[d]thiazol-2-yl)-5-isoxazolyl]methyl}-4-methoxybenzamide] | 2 (11˜20) | 2 (11˜20) |
| COc1ccc(C(=O)NCc2cc(C(C)C)no2)cc1 [III-225, N-[(3-isopropyl-5-isoxazolyl)methyl]-4-methoxybenzamide] | 4 (1˜5) | 4 (1˜5) |
| Cc1ccc(-c2cc(CNC(=O)C3CCCC3)on2)cc1 [III-227, N-{[3-(4-tolyl)-5-isoxazolyl]methyl}cyclopentanecarboxamide] | 5 (0) | 5 (0) |
| Cc1ccc(-c2cc(CNC(=O)C3CCC3)on2)cc1 [III-228, N-{[3-(4-tolyl)-5-isoxazolyl]methyl}cyclobutanecarboxamide] | 4 (1˜5) | 3 (6˜10) |
| COc1ccc(C(=O)NCc2cc(CC(C)C)no2)cc1 [III-229, N-[(3-isobutyl-5-isoxazolyl)methyl]-4-methoxybenzamide] | 5 (0) | 5 (0) |
| CCC(CC)c1cc(CNC(=O)c2ccc(OC)cc2)on1 [III-230, N-{[3-(1-ethylpropyl)-5-isoxazolyl]methyl}-4-methoxybenzamide] | 5 (0) | 5 (0) |
